Data: PMC5055185, “Dual pharmacological inhibition of glutathione and thioredoxin systems synergizes to kill colorectal carcinoma stem cells” (Cancer Medicine, 2016)

How the values were obtained:
[1] = system: NRF2 target genes in colorectal CTOSs; experiment: qRT-PCR of NRF2 and TP53 target genes in colorectal CTOSs; type: cell-based, human; settings: higher dose (auranofin 4, CB83 25, piperlongumine 10 μmol/L) for 24 h
Description: Total RNA was purified using RNAiso Plus (Takara, Osaka, Japan). Reverse transcription was performed using PrimeScript™ with gDNA Eraser (Takara). For quantifying the copy number of each mRNA, we used a StepOne™ Real‐Time PCR System (Applied Biosystems, Waltham, MA) and the Taqman® method. Data were calculated according to the modified delta‐cycle of threshold (ΔCT) method. Normalized Log2 expression was defined as follows: (Log2 expression of a gene of interest) = 30 (arbitrary constant) + (CT of 18S rRNA) − (CT of a gene of interest). We used Log2 parameter for statistical analysis because mRNA expression follows a log‐normal distribution, whereas ΔCT follows normal distribution. A gene‐specific fluorescent probe was designed using a web‐based program (https://qpcr.probefinder.com/organism.jsp). […] Gene‐specific Taqman® probes were purchased from Life Technologies, (Waltham, MA, for Cat#, see Table S1 SpreadSheet2). For PCR, Thunderbird® Probe qPCR mix (Toyobo, Osaka, Japan) was used and the PCR conditions consisted of 40 cycles of two steps (95°C for 15 sec and 60°C for 50 sec).
In order to judge the effect of drug treatments on gene expression, a repeated measures one‐way analysis of variance (ANOVA) was used to determine the variance of Log2 expression from four different groups (untreated, auranofin, CB83, and piperlongumine) using SPSS. Subsequently, the effect of each drug was determined by a paired t test as a post hoc analysis. The P‐values < 0.05 were defined as statistically significant.
In order to estimate NRF2 compensation induced by pharmacological inhibition of TXNRD (auranofin), G6PD (CB83), or GSTπ (piperlongumine), we quantified gene expression of NRF2 target genes. Activation of NRF2 protein was confirmed by NRF2 phosphorylation (Fig. S5A).

CRC cell lines = system: CRC cell lines; set-up: method as in PMID 25591719; settings: cited from earlier work
[2] = system: phosphorylated NRF2 in colorectal CTOSs; experiment: NRF2 phosphorylation by western blotting, colorectal CTOSs; type: cell-based, human; settings: 24 hours, Auranofin 2µM, Piperlongumine 5µM, CB83 12.5 µM
Description: From colorectal CTOS, whole‐cell proteins were dissolved with solubilizer (7 mol/L urea, 2 mol/L thiourea, 2% Triton X‐100, Wako) and the entangled genomic DNA was sheared by sonication for 30 min. Procedures for immunoblotting have been described elsewhere 6, 10. Primary antibodies used in this study are as follows: phosphorylated NRF2 from Abcam (#76026) and Histone H3 from Cell Signaling Technologies (#4499, Danvers, MA). Phosphorylation of NRF2 is well correlated with nuclear accumulation in HCCs 6. Representative data are shown in the figures; all experiments were reproduced at least twice with different passage points.
Colorectal CTOSs were incubated with each inhibitor for 24 hours. Whole cell proteins were extracted and each well was loaded with same amount of proteins (40 µg for NRF2 and 10 µg for H3). Phosphorylation of NRF2 was measured by western blotting. Blotting for histone H3 serves as loading control.

[3] = system: OUMS‐36 embryonic fibroblasts; experiment: intracellular ROS, CellROX Deep Red flow cytometry, OUMS-36; type: cell-based, human; settings: treated 1 h (menadione 100 μmol/L, 30 min)
Description: (§1) In order to estimate the effect of each inhibitor described above, intracellular reactive oxygen species (ROS) were measured using CellROX™ Deep Red reagent (Molecular Probes). Briefly, cells were seeded on 6‐well plates at 1 × 10^6 cells per well. After cells reached 90% confluence, cells were treated with designated reagents for 1 h. CellROX™ Deep Red reagent was added at a final concentration of 5 μmol/L to the culture medium and then incubated for 30 min at 37°C. Subsequently, the medium was removed and the cells were washed with PBS and detached using 0.25% trypsin‐EDTA. The resulting fluorescence was measured using a FACS Calibur flow cytometer (Becton Dickinson, Franklin Lakes, NJ). Menadione (100 μmol/L) was added 30 min before CellROX™ Deep Red reagent treatment as a reference ROS inducer. […] CD44v9 positivity of CTOS cells was analyzed as follows: Cancer spheroids were dispersed with serial treatments of TrypLE™ (20 min, GIBCO) and Accumax™ (10 min, Innovative Cell Technologies, San Diego, CA). Cell surface CD44v9 was stained with CD44v9 antibody (Cosmobio) as well as PE‐conjugated anti‐rat IgG2a (Becton Dickinson). The fluorescence was measured using a FACS Calibur flow cytometer (Becton Dickinson). Since CTOSs contained abundant auto‐fluorescent cells, we defined FL2^+FL1^− cells as authentic PE‐positive (Fig. S4). Thus, CD44v9‐positive rate was defined as FL2^+FL1^−/total live cells and CD44v9‐positive fraction was further gated and split between CD44v9^low and CD44v9^high (Fig. S4), to calculate the mean fluorescent intensity of CD44v9^high fraction.
(§2) One hour after each drug treatment, cells were stained with CellROX DeepRed and intracellular ROS were quantified with FACS. Upper: histogram of fluorescent signal is represented. Lower. representative mean fluorescent intensity scores are shown. Note that without drug treatment (Control), intracellular ROS is higher in OUMS36 and TIG3 (embryonic fibroblasts) but lower in DLD-1 and HCT116 (CRC cell lines). ROS in DLD-1 was increased by auranofin. ROS in HCT116 was increased by all the inhibitors tested. […]

HCT116 CRC cell line = experiment: intracellular ROS, CellROX Deep Red flow cytometry, HCT116; type: cell-based, human; settings: treated 1 h (menadione 100 μmol/L, 30 min)
Description: as §1
One hour after each drug treatment, cells were stained with CellROX DeepRed and intracellular ROS were quantified with FACS. Upper: histogram of fluorescent signal is represented. Lower. representative mean fluorescent intensity scores are shown. Note that without drug treatment (Control), intracellular ROS is higher in OUMS36 and TIG3 (embryonic fibroblasts) but lower in DLD-1 and HCT116 (CRC cell lines). ROS in DLD-1 was increased by auranofin. ROS in HCT116 was increased by all the inhibitors tested. Menadione was used as a reference chemical to increase ROS.

[4] = system: TIG‐3 embryonic fibroblasts; experiment: intracellular ROS, CellROX Deep Red flow cytometry, TIG-3; type: cell-based, human; settings: treated 1 h (menadione 100 μmol/L, 30 min)
Description: as §1, §2

DLD‐1 CRC cell line = experiment: intracellular ROS, CellROX Deep Red flow cytometry, DLD-1; type: cell-based, human; settings: treated 1 h (menadione 100 μmol/L, 30 min)
Description: as §1, with “Since CTOSs contained abundant auto‐fluorescent cells, we defined FL2^+FL1^− cells as authentic PE‐positive (Fig. S4). Thus, CD44v9‐positive rate was defined as FL2^+FL1^−/total live cells and CD44v9‐positive fraction was further gated and split between CD44v9^low and CD44v9^high (Fig. S4), to calculate the mean fluorescent intensity of CD44v9^high fraction.” left out
One hour after each drug treatment, cells were stained with CellROX DeepRed and intracellular ROS were quantified with FACS. […]

## Cc1ccc(C)c(S(=O)(=O)Nc2ccc(O)c3ccccc23)c1 [CB83]
[1]
  TXNRD1 mRNA expression change: up‐regulated
CRC cell lines
  GSH/GSSG ratios: failed to alter
  NADPH/NADP+ ratios: decreased
[2]
  NRF2 phosphorylation: efficiently phosphorylated
[3]
  intracellular ROS response: no ROS increase
HCT116 CRC cell line
  intracellular ROS response: increase of ROS
[4]
  intracellular ROS response: no ROS increase

## CC1=CC(=O)c2ccccc2C1=O [menadione, Menadione]
DLD‐1 CRC cell line
  intracellular ROS response: increase of ROS
[3]
  intracellular ROS response: no ROS increase
HCT116 CRC cell line
  intracellular ROS response: increase of ROS
[4]
  intracellular ROS response: no ROS increase
